Measured values published in ChEMBL document CHEMBL4130360, “Synthesis of 2-imino and 2-hydrazono thiazolo[4,5-d]pyrimidines as corticotropin releasing factor (CRF) antagonists” (Eur J Med Chem, 2017).

Each compound was assayed against T1, Corticotropin-releasing factor receptor 1 (Homo sapiens, UniProt P34998) (assay: Displacement of [125I]-Tyr0-sauvagine from human CRFR1 expressed in HEK293 cell membrane homogenates after 120 mins by gamma counting method).
T1 sequence (P34998 whole entry): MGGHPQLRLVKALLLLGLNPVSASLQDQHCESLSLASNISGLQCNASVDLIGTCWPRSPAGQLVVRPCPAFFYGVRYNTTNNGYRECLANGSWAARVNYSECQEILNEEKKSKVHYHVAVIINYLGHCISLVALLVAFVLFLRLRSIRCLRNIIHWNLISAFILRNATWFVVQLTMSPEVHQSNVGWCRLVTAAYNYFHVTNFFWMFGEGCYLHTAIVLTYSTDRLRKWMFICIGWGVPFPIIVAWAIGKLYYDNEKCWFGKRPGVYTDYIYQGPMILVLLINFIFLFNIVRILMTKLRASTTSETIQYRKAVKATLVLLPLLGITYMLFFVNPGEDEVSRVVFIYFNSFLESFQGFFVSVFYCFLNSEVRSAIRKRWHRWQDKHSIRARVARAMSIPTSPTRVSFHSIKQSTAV
Type: cell membranes

Compound | IC50 [nM]
CCN(CC)c1nc(C)nc2c1s/c(=N/N)n2-c1c(C)cc(C)cc1C | 447
CCN(CC)c1nc(C)nc2c1sc(=N)n2-c1c(C)cc(C)cc1C | 891
CCCCN(CC)c1nc(C)nc2c1sc(=N)n2-c1c(C)cc(C)cc1C | 170
